The target of experiment [1] is P2X purinoceptor 3 (Rattus norvegicus) (UniProt P49654). Kind of experiment: The compound was evaluated for antagonist activity against recombinant rat P2X purinoceptor 3 (P2X3) at 3 uM, expressed in Xenopus oocytes.
Experiment [2] shares this target. Kind of experiment: The compound was evaluated for antagonist activity against recombinant rat P2X purinoceptor 3 (P2X3) at 10 uM,expressed in Xenopus oocytes.
In experiment [3] the target is T1, P2X purinoceptor 7 (Rattus norvegicus, UniProt Q64663).
T1 sequence (Q64663 whole entry): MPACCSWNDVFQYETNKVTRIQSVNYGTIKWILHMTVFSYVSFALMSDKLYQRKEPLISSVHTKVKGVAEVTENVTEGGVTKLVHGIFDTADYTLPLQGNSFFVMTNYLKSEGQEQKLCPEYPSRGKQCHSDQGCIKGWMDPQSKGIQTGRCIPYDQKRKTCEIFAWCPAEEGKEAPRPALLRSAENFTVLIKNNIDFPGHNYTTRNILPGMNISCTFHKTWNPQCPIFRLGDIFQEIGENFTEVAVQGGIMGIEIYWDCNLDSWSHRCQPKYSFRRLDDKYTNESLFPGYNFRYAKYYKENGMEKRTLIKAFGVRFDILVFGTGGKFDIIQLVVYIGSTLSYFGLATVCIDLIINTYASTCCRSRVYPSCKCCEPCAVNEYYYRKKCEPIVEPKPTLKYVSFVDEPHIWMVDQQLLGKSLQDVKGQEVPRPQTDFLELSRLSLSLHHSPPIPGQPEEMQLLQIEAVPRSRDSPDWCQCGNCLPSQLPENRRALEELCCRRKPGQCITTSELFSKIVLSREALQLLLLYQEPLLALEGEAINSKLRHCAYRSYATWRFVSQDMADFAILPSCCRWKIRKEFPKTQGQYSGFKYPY
Description: The compound was evaluated for antagonist activity against recombinant rat P2X purinoceptor 7 (P2X7).

Experiment [4] concerns the target P2Y purinoceptor 1 (Meleagris gallopavo, UniProt P49652). Description: Evaluated for agonist activity against phospholipase C coupled P2Y purinoceptor 1 (P2Y1) of turkey erythrocytes.
Experiment [5] in a line: Dissociative constant against P2Y purinoceptor (P2Y) was reported; range 10-214.
The nature of experiment [6]: The compound was evaluated for antagonist activity against recombinant rat P2X […] receptor 10 uM.
Experiment [7] concerns the target P2X purinoceptor 2 (Rattus norvegicus). Description: The compound was evaluated for antagonist activity against recombinant rat P2X purinoceptor 2 (P2X2) at 30 uM.
Experiment [8] can be described thus: Dissociation constant at P2X purinoceptor 1 from guinea pig taenia coli.

As usually defined, the EC50 is the concentration giving half of the maximal effect. Usually Kd stands for the concentration at which binding is half-saturated. In general, IC50 refers to the concentration needed to halve the response being measured.

Where only a bound is given, the exact number is not on record here.

Chain of P2X purinoceptor 3 (Rattus norvegicus) (P49654 whole entry, looked up): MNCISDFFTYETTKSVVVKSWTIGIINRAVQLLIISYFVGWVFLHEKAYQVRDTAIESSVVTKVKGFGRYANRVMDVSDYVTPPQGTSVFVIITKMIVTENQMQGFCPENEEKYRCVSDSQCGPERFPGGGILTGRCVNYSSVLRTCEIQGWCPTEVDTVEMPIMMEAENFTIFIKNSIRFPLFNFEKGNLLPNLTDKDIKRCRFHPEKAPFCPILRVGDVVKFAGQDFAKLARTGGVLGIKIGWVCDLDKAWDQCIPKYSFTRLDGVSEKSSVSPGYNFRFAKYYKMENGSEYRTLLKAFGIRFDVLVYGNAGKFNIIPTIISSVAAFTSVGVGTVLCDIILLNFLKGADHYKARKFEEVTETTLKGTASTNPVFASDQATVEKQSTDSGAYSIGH
Chain of P2Y purinoceptor 1 (P49652 whole entry): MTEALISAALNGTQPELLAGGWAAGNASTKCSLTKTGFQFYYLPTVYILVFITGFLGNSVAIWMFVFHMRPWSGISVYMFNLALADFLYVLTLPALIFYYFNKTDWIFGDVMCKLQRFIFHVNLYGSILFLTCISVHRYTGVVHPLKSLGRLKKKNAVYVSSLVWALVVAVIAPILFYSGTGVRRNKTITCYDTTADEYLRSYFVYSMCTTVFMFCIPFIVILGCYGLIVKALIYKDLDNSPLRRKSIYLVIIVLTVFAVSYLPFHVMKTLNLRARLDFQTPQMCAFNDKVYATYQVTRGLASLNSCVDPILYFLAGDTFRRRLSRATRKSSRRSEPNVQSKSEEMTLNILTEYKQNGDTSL

As to `Nc1ncnc2c1ncn2[C@@H]1O[C@H](CO[P@@](=O)(O)O[P@@](=O)(O)CP(=O)(O)O)[C@@H](O)[C@H]1O`, the 50% effective concentration (EC50) in experiment [1] stood at 9200 nM.

Regarding `CCCCCCSc1nc(N)c2ncn([C@@H]3O[C@H](COP(=O)(O)O)[C@@H](O)[C@H]3O)c2n1` [((2R,3S,4R,5R)-5-(6-amino-2-(hexylthio)-9H-purin-9-yl)-3,4-dihydroxytetrahydrofuran-2-yl)methyl dihydrogen phosphate], the EC50 in experiment [2] is 350 nM. For `CCOc1ccc(Nc2ccc([C+](c3ccc(N(CC)Cc4cccc(S(=O)(=O)[O-])c4)cc3C)c3ccc(N(CC)Cc4cccc(S(=O)(=O)O)c4)cc3C)cc2)cc1` [Brilliant Blue], the concentration giving a half-maximal response (EC50) in experiment [3] turned out to be 400 nM; in experiment [4], 0.1 nM. In experiment [5], `O=S(=O)(O)c1cc(N=C=S)ccc1/C=C/c1ccc(N=C=S)cc1S(=O)(=O)O` [DIDS] had a Kd of 10000 nM. Consider `O=c1[nH]cnc2c1ncn2[C@@H]1O[C@H](COP(=O)(O)OP(=O)(O)OP(=O)(O)OP(=O)(O)OP(=O)(O)OC[C@H]2O[C@@H](n3cnc4c(=O)[nH]cnc43)[C@H](O)[C@@H]2O)[C@@H](O)[C@H]1O` [Ip5I], for which the IC50 in experiment [6] was 2800 nM; in experiment [7], greater than 30000 nM.

`Nc1ccc(CCSc2nc(N)c3ncn([C@@H]4O[C@H](COP(=O)(O)OP(=O)(O)OP(=O)(O)O)[C@@H](O)[C@H]4O)c3n2)cc1` [PAPET-ATP]: in experiment [2], the concentration for a half-maximal effect (EC50) turned out to be 17 nM.

With `C=CS(=O)(=O)c1cccc(Nc2cc(S(=O)(=O)O)c(N)c3c2C(=O)c2ccccc2C3=O)c1` [Uniblue A], in experiment [8], the equilibrium dissociation constant (Kd) stood at 800 nM.

The record behind these values is BindingDB's records for doi:10.1021/jm020046y (National Institute of Diabetes, 2002).
